Results taken from the OPERA property sets (Mansouri et al. 2018).

Structure (SMILES)	logP
c1ccc2c(c1)OCCOCCOCCOCCOCCOCCOCCOc1ccccc1OCCO2	1.82
c1ccc2c(c1)OCCOCCOCCOCCOCCOCCOc1ccccc1OCCO2	1.63
c1ccc2c(c1)OCCOCCOCCOCCO2	0.91
c1ccc2c(c1)OCCOCCOCCOCCOCCOCCOCCOc1ccccc1OCCOCCOCCOCCOCCOCCOCCO2	0.52
COCCOCCOc1cccc(OCCOCCOC)c1	0.86
c1ccc2c(c1)OCCOCCOCCOCCOCCOCCOCCO2	0.45
c1ccc2c(c1)OCCOCCOCCOCCOCCO2	0.58
c1ccc2c(c1)OCCOCCOc1ccccc1OCCOCCO2	2.2
c1ccc2c(c1)OCCOCCOCCOCCOCCOCCOCCOCCOCCOCCO2	-0.09
c1ccc2c(c1)OCCOCCOCCOCCOc1ccccc1OCCOCCOCCOCCO2	1.8
c1ccc2c(c1)OCCOCCOCCOCCOCCOCCO2	0.57
COCCOCCOCCOc1ccccc1OCCOCCOCCOC	0.38
COCCOCCOc1ccc(OCCOCCOC)cc1	0.76
COCCOCCOc1ccccc1OCCOCCOC	0.76
c1ccc2c(c1)OCCOCCOCCOCCOCCOCCOCCOCCOCCO2	0.03
c1ccc2c(c1)OCCOCCOCCOc1ccccc1OCCOCCOCCO2	2.11
c1ccc2c(c1)OCCOCCOCCOCCOCCOCCOc1ccccc1OCCOCCOCCO2	1.45
